Reference: patent US9820483B2, “Microbial composition” (Rohm and Haas Company, priority 2011, dated 2017)

System: S. aureus ATCC 6538
Experiment: Synergy of terpinyl alcohols with phenolic compounds in water, 15 seconds contact, plate count log reduction
Type: cell-based, Staphylococcus aureus
Details: 0.1% alone
Protocol: Liquid actives were used directly. Solid actives were dissolved in alcohol and a 50% stock was made.
The culture was grown overnight in Tryptone soya agar. It was suspended in saline (0.85% NaCl) to a con. of 1.5×10^8-5×10^8 cells/ml
To 9 ml water the actives were added to give the desired concentration. 1 ml of the culture was added and mixed. After 15 seconds contact 1 ml aliquot was removed and added to a neutraliser and kept for 5 minutes. A control of untreated cells was similarly processed. It was then diluted and plated. The plates were incubated at 37° C. for 24 hours. The colonies on the plates were counted. The counts were converted to log10. The log. no. of survivors was determined and log reduction calculated.

SMILES: CC=Cc1ccccc1O [2-propenylphenol]
- Log reduction S. aureus ATCC 6538: 1.92
